In general, Ki refers to a dissociation constant, usually derived from enzyme kinetics or from competition with a known ligand. One may read the Kd as the equilibrium constant for the complex coming apart.

Data on 27 substances can be found in patent publication US9605029B2, “Antibody-binding peptide” (NATIONAL INSTITUTE OF ADVANCED INDUSTRIAL SCIENCE AND …, priority 2013, dated 2017).

Experiment [1] has as its system Fc region (Jackson ImmunoResearch Laboratories, Inc.) labeled with horseradish peroxidase (HRP). In words: ELISA of recombinant phages displaying polypeptides (Example 1, 6). It counts as binding, human. The conditions noted are these: recombinant T7 phage displaying the polypeptide, absorbance at 415 nm. The method, then: 6) In this section, it will be stated as an example that the binding activity of recombinant phages transformed by nucleic acids encoding the amino acid sequences represented by SEQ ID NOs: 2 to 9 and 11 to 19 was measured by Enzyme Linked Immuno-Sorbent Assay (ELISA).
DNA molecules encoding the amino acid sequences of SEQ ID NOs: 2 to 9 and 11 to 19 were amplified by a polymerase chain reaction (PCR). PCR was carried out using KOD DNA polymerase (TOYOBO) under reaction conditions according to the accompanying manual. The amplified DNA molecules were each digested with restriction enzymes EcoRI and HindIII and ligated to 3′ terminal of g10 gene on T7 phage genomic DNA. Ligation to T7 phage genomic DNA was performed by use of a sample attached to T7Select10-3 Cloning Kit (Novagen) under the reaction conditions and in accordance with the procedure described in the accompanying T7Select (registered trade mark) System Manual. Using T7 phage genomic DNA ligated, T7 phage was packaged in a test tube by T7Select Packaging Kit (Novagen) under the reaction conditions in accordance with T7Select (registered trade mark) System Manual (Novagen). Subsequently, phage plaques were formed in accordance with T7Select (registered trade mark) System Manual (Novagen). From each of the plaques, a recombinant phage displaying the polypeptide was isolated. To MICROTEST (registered trade mark) 96 (BECTON, DICKINSON AND COMPANY), a culture solution (0.2 mL) of Escherichia coli BL5403 strain cultured in LB medium until O.D.600 reached 1.0 was poured to infect with the Escherichia coli cells each of the recombinant phages isolated from plaques and allowed to stand still at 37° C. for 12 hours to proliferate phages. The culture solution (10 μL) containing these phages was diluted in 90 μL of TBS buffer (50 mM Tris-HCl, 150 mM NaCl, pH 7.4) to prepare measurement samples.
The measurement samples were poured to MEDISORP 96 well microplate (Nunc) and allowed to stand still for one hour to allow the phage to physically adsorb to the plate. After the supernatant was removed, SuperBlock (registered trade mark) T20 (TBS) Blocking Buffer (Thermo […]) (150 μL) was poured to the plate and allowed to stand still for one hour to block the surface of the plate. The plate was washed three times with TBS-T buffer (50 mM Tris-HCl, 150 mM NaCl, 0.1% Tween 20 (registered trade mark), pH 7.4). To the plate, TBS-T buffer (100 μL) containing an Fc region (Jackson ImmunoResearch Laboratories, Inc.) (0.2 μg/mL) labeled with horseradish peroxidase (HRP) was added and allowed to stand still for one hour. After the plate was washed three times with TBS-T buffer, ABTS One Component HRP Microwell Substrate (BioFX) (100 μL) was poured to the plate. Binding activity was detected through a color reaction. The absorbance at 415 nm (O.D.415) was measured by a microplate absorbance reader Sunrise R (TECAN GROUP LTD.). TBS-T buffer containing no phages was used as a negative control in a control experiment.
ELISA results of the recombinant phages displaying polypeptides containing amino acid sequences represented by SEQ ID NOs: 2 to 9 and the recombinant phages displaying polypeptides containing amino acid sequences represented by SEQ ID NOs: 11 to 19 are shown in Table 2A and Table 2B, respectively.

Experiment [2] has as its target human IgG. The conditions noted are these: competitive reaction with protein A; read-out: competitive inhibitory capacity Ki; cited from earlier work.
Experiment [3] has as its target IgG. To be noted: Non Patent Literature 4; read-out: equilibrium dissociation constant, KD; cited from earlier work.
Experiment [4] addresses T1, Fc region prepared by digesting human monoclonal antibody IgG with papain (Homo sapiens, UniProt P01857).
T1 construct: The Fc region to be immobilized to a sensor chip was prepared, by digesting human monoclonal antibody IgG with papain; made in house; host or cells: papain digest of human monoclonal IgG (Pierce Fab Preparation Kit), then MabSelect SuRe, HiTrap DEAE and Superdex 200
In words: Surface plasmon resonance, polypeptides on immobilized Fc region prepared from human monoclonal IgG (Example 2, 3) and 4); Example 8). Format: binding. On the procedure: The polypeptides, which were previously synthesized in an organic chemical manner were purchased from bio[…], were diluted with HBS-T buffer and controlled so as to have a concentration of 500, 400, 300, 200 or 100 nM. The surface plasmon resonance test was performed by using Biacore T100 (GE Healthcare). The Fc region to be immobilized to a sensor chip was prepared, by digesting human monoclonal antibody IgG with papain, in accordance with the instruction attached to Pierce (registered trade mark) Fab Preparation Kit (Thermo […]), followed by purifying by affinity chromatography using MabSelect SuRe (GE Healthcare), HiTrap DEAE anion exchange chromatography (GE Healthcare) and gel filtration chromatography using Superdex 200 (GE Healthcare). The Fc region prepared was immobilized to Sensor Chip CM5 (GE Healthcare) by the amine coupling method. The binding activity of the synthesized peptides prepared was measured and equilibrium dissociation constants were determined. Data were processed by use of Biacore TOO Evaluation Software (GE Healthcare).
4) In this section, it will be stated as an example that the binding activity of a polypeptide consisting of an amino acid sequence (referred to as p17) of SEQ ID NO: 57 was measured by surface plasmon resonance. The polypeptide was prepared by cleaving thioredoxin fusion protein p17_trx consisting of the amino acid sequence of SEQ ID NO: 86 with a protease and removing a thioredoxin portion. Since the thioredoxin fusion protein, which is produced by expression vector pET-48b (Novagen), has an HRV 3C protease cleavage site in the amino acid sequence, the desired polypeptide ligated to the C terminal can be obtained by use of protease.
DNA (SEQ ID NO: 124) encoding the thioredoxin fusion protein (SEQ ID NO: 86) containing p17 was synthesized by PCR and introduced to an expression vector, pET-48b (Novagen). Using the expression vector and in accordance with the same procedure as in Example, 1, 5), the thioredoxin fusion protein was prepared. The thioredoxin fusion protein (40 mg) was digested with 100 units of HRV 3C Protease (Novagen) at 4° C. under the reaction conditions according to the accompanying manual. The digested product was diluted in a 6 M guanidine hydrochloride solution and purified by gel filtration chromatography using Superdex Peptide 10/300 GL (GE Healthcare). Subsequently reverse phase chromatography using μRPC C2/C18 ST 4.6/100 (GE Healthcare) was performed to prepare a polypeptide p17 consisting of an amino acid sequence of SEQ ID NO: 57.
Subsequently, the binding activity of p17 prepared was measured by surface plasmon resonance by use of Biacore T100 (GE Healthcare).
Subsequently, the binding activity of five types of polypeptides prepared above was analyzed by surface plasmon resonance. Biacore T100 (GE Healthcare) was used in measurement. […]
For orientation: In SPR one partner is held on a chip, and binding of the other changes the refractive index at the surface.

Experiment [5] deals with human Fc region manufactured by Jackson ImmunoResearch Laboratories, Inc. In words: Surface plasmon resonance, synthetic polypeptides on immobilized human Fc region (Example 1, 4). The conditions noted are these: synthetic polypeptide, 25° C., HBS-T buffer pH 7.4. Format: binding. The method, then: The polypeptides previously synthesized in an organic chemical manner were purchased from bio[…]. Biacore T100 (GE Healthcare) was used as a surface plasmon resonance measurement apparatus. The human Fc region manufactured by Jackson ImmunoResearch Laboratories, Inc. was immobilized to Sensor Chip CM5 (GE Healthcare) in accordance with an amine coupling method using an Amine Coupling Kit (GE Healthcare). […] The binding activity of these polypeptides was measured at a reaction temperature of 25° C. The measurement data were processed by Biacore TOO Evaluation Software (GE Healthcare).

The target of experiment [6] is rabbit IgG. To be noted: Non Patent Literature 5; cited from earlier work.
rabbit IgG, sequence (P01870 101-323 limits assumed): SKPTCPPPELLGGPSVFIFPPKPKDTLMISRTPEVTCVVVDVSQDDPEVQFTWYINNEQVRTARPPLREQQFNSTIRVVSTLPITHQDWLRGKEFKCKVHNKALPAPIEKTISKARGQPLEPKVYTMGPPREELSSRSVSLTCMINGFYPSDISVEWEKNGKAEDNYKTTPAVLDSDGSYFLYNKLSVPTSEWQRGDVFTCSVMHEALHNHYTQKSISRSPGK
In experiment [7] the target is IgG. The conditions noted are these: domains by themselves; Non Patent Literature 28 and 29; cited from earlier work.
Where [8] appears, read: synthetic polypeptide, read-out: equilibrium dissociation constants KD.
The mark [9] stands for this setting: variant polypeptide with alanine substitution, read-out: Equilibrium dissociation constant of p17 variant KD.
Where [10] appears, read: read-out: equilibrium dissociation constant KD.

Like-named read-outs stand apart in the source and are kept apart here. Ends that are not written are not given here.

Regarding “3 (YDPGTGTWRSYLRFGGG; IgG binding peptide, H3) [compound 3]”, the “O.D. 415” value in experiment [1] (control 0.08) is on record as 0.278. The same measure, in the same setting: the result for “4 (YDPYTGTWRSSIWVLSG; IgG binding peptide, D5) [compound 4]” reads 0.165; that for “5 (YDPGTGTWRSWLSFNVG; IgG binding peptide, E7) [compound 5]”, 0.155. Still for that read-out and setting: the result for “6 (YDPWTGTWRSFIWGGGG; IgG binding peptide, sC12) [compound 6]” reads 0.149. Still for that read-out and setting: then “7 (YDPRTGTWLLYASRLLG; IgG binding peptide, G3) [compound 7]”, with 0.214. As to “8 (YDPVTGTWTSSIASWMG; IgG binding peptide, G11) [compound 8]”, the “O.D. 415” value in experiment [1] (control 0.08) was found to be 0.223. On the same count and under the same terms, then “9 (YDPRTGTWRRSSLSYSG; IgG binding peptide, sA7) [compound 9]”, with 0.193. Turning to “12 (AGSRRAHGYDPRTGTWRSSIAYGGG; IgG binding peptide, 2A4) [compound 12]”, the “O.D. 415” value in experiment [1] (control 0.101) came to 0.267. Still for that read-out and setting: the result for “14 (SWRRRGSSYDPRTGTWRSSIAYGGG; IgG binding peptide, 2H1) [compound 14]” reads 0.282; that for “15 (TGRGRSARYDPRTGTWRSSIAYGGG; IgG binding peptide, 2F2) [compound 15]”, 0.396.

Turning to “16 (HWVNGRSGYDPRTGTWRSSIAYGGG; IgG binding peptide, 2F4) [compound 16]”, the “O.D. 415” value in experiment [1] (control 0.101) was found to be 0.373.

On to “18 (GSVVRWRGYDPRTGTWRSSIAYGGG; IgG binding peptide, 2F7) [compound 18]”, for which, in experiment [1] (control 0.101), the “O.D. 415” value was determined as 0.36.

Regarding “19 (GAVYRRSFYDPRTGTWRSSIAYRGG; IgG binding peptide, 2F9) [compound 19]”, the “O.D. 415” value in experiment [1] (control 0.101) amounted to 0.353. For the substance “Asp Cys Ala Trp His Leu Gly Glu Leu Val Trp Cys Thr [Fc-III]”, the Ki in experiment [2] was 100 nM. In addition, the Kd in experiment [3] was 185 nM.

As for “DAAWHLGELVWATYYDPETGTWAPDWRLMQGQ [SEQ ID NO: 25]”, the Kd in experiment [4] (setting [8]) is 510 nM. The same measure, in the same setting: the result for “DAAWHLGELVWATYYDPETGTWLPDWQTMAQK [SEQ ID NO: 26]” reads 100 nM. Turning to “DAAWHLGELVWATYYDPETGTWQPDWLYMTTR [SEQ ID NO: 24]”, in experiment [4] (synthetic polypeptide, read-out: KD), the Kd is 120 nM. “GPGISAFSPGRGVYDPETGTWYDAAWHLGELVWATYYDPETGTWEADWQRMLGQ [SEQ ID NO: 174]”: the Kd in experiment [4] (setting [9]) is 5.6 nM. Consider “GPGISAFSPGRGVYDPETGTWYDAAWHLGELVWATYYDPETGTWEPAWQRMLGQ [SEQ ID NO: 175]”, for which, in experiment [4] (setting [9]), the Kd was 45 nM. As to “GPGISAFSPGRGVYDPETGTWYDAAWHLGELVWATYYDPETGTWEPDAQRMLGQ [SEQ ID NO: 176]”, in experiment [4] (setting [9]), the Kd amounted to 200 nM. Still for that read-out and setting: then “GPGISAFSPGRGVYDPETGTWYDAAWHLGELVWATYYDPETGTWEPDWQAMLGQ [SEQ ID NO: 177]”, with 7.8 nM.

On to “GPGISAFSPGRGVYDPETGTWYDAAWHLGELVWATYYDPETGTWEPDWQRMLGQ [SEQ ID NO: 57]”, for which the Kd in experiment [4] (polypeptide obtained by protease cleavage of p17_trx, read-out: KD) was found to be 1.6 nM; in experiment [4] (polypeptide obtained by protease cleavage of p17_trx, read-out: equilibrium dissociation constant KD), 1.6 nM. As to “GVVRQWSGGGGSGGGGRSSIAYGGG [SEQ ID NO: 21]”, the equilibrium dissociation constant (Kd) in experiment [5] (setting [10]) is 23000 nM. Take RSSIAYGGG [SEQ ID NO: 22]: the Kd in experiment [5] (read-out: KD) and in experiment [5] (setting [10]) was 110000 nM in each case. Consider “peptide from a synthesized branched tetrapolypeptide library (Arg Thr Xaa)4 Lys2 Lys Gly, competitively works with protein A (Fassina et al.) [TG19318]”, for which the Kd in experiment [6] was 300 nM. “protein A: IgG-binding protein derived from Staphylococcus, conventionally used”: the Kd in experiment [7] was about 10 nM. In the case of “protein G: bacteria-derived natural IgG-binding protein, conventionally used”, in experiment [7], the Kd is about 490 nM.
